Data reported in US6165732A, “Method for identifying apoptosis modulating compounds” (Washington University, priority 1998, dated 2000).
Where two headings read alike, the source gives them in different places.

Legend:
[1] = Cl- release (efflux) from KCl loaded synthetic lipid vesicles as a function of pH; format: biochemical
Procedure: This example illustrates that Bax and Bcl-2 induce the release of ions from synthetic lipid vesicles.
Unilamellar vesicles composed of 40% 1,2 dioleoyl phosphatidyl glycerol and 60% 1,2 dioleoyl phosphatidyl choline (Avanti Polar Lipids) were prepared in 100 mM KCl, 2 mM CaNO3 and 10 mM dimethylglutarate, pH 5.0 as previously described (Peterson et al., J. Membr. Biol. 99:197-204, 1987). The resulting liposomes were diluted 200-fold to a concentration of 0.05 mg/ml in 100 mM KNO3, 2 mM CaNO3 and 10 mM dimethylglutarate which was titrated to pH 3.5, 4.0, 4.5, 5.0, 5.5 or 6.0 with NaOH or with acetic acid. BaxΔC19 and Bcl-2ΔC21 were added at a concentration of 500 ng/ml and Cl^- efflux was measured with a Cl^- combination ion selective electrode (Accumet). Triton X-100 (0.1%) was added to release the total encapsulated Cl^- at the times indicated by the arrows in FIG. 1. The total amount of Cl^- released was quantitated by a calibration curve produced by successive additions of 25 μM KCl.

[2] = Low pH channel formation after addition of protein to an established planar lipid bilayer; format: biochemical; conditions: for conductance of initial channel / time to appearance of initial current: 450/150 mM KCl; for conductance of initial channel: pH 4.0, initial current; for ion selectivity of channel: low pH insertion
Excerpt: (§1) The Bax and Bcl-2 polypeptides used in the ion channel studies reported herein were recombinant murine Bcl-2 and Bax polypeptides lacking the C-terminal signal-anchor membrane targeting sequence (Bcl-2ΔC21, amino acids 1-218 of SEQ ID NO:9 and BaxΔC19, amino acids 1-173 of SEQ ID NO:6). These deletion derivatives, also referred to herein as BaxΔTM and Bcl-2ΔTM, were used to avoid any interference of the C-terminal signal-anchor membrane targeting sequence with the capacity of internal α helices to mediate insertion into artificial lipid bilayers.
(§2) Planar lipid bilayers were prepared from soybean lipids by chloroform extraction of Azolectin Type II (10-20% choline, 80-90% negatively charged lipids) (Sigma). The chloroform was removed with a stream of nitrogen and the lipids stored under N2 until dissolved in decane at 30 mg/ml. This preparation was then stored under nitrogen. The 0.25 mm orifice of a polystyrene cuvette (Warner Instruments) was pretreated with 2 μl of the decane lipid solution and the solvent allowed to evaporate. The cuvette was then placed into a bilayer chamber and connected to Bilayer Clamp BC525-a (Warner Instruments) by Ag/AgCl electrodes via agar salt bridges. Data were collected using an Axoscope (Axon Instruments Software), archived on video tape using a Neurocorder DR-484 (Neuro Data Instruments), and analyzed using Origin (Microcal) and pClamp6 (Axon Instruments Software). Slope conductance was calculated by the method of least squares and the variance is given. Ion selectivities were calculated using the reversal potential and the Goldman equation. The reversal potential means the zero-current potential of a bilayer membrane. The reversal potential is zero with no ion gradient and the magnitude of the potential in the presence of an ion gradient reflects the cation versus anion selectivity of the bilayer.
Bilayers were formed by spreading with a polished glass rod and allowed to thin to a capacitance of 0.4 μF/cm^2 at which point the noise was typically 0.2 pA and the leak conductance was 20 pS. The salt concentrations were initially 450 mM KCl in the cis chamber (1.0 ml) and 150 mM KCl in the trans chamber (0.5 ml) to permit identification of spontaneous initial currents. Outward (positive) currents were defined as K^+ moving cis-to trans. All solutions were buffered to pH 4.0 with 10 mM K-acetate. BaxΔTM or Bcl-2ΔTM (approx. 1 μg) was added to the cis chamber with mixing. After initial currents were identified the soluble protein was usually removed by exchanging the cis chamber contents with aliquots of buffer.

[3] = Channels in planar lipid bilayers at pH 7.0 after fusion with unilamellar proteoliposomes containing the protein; format: biochemical
Excerpt: as §1, §2
Proteoliposomes for fusion with a planar lipid bilayer were prepared as follows. Purified protein (0.25 μg) was added to […] lipid (Azolectin) in 20 μl of KCl buffer (150 mM KCl, 10 mM HEPES, pH 7.0). This mixture was placed into a dialysis bag with a molecular weight cutoff of 12 KDa. After 16 hours dialysis in 3000 volumes of 150 mM KCl (10 mM HEPES, pH 7.0) the proteoliposome suspension was removed and placed on ice for immediate use. The bilayer was set up with a 450:150 cis to trans KCl gradient to identify the ion selectivity of the initial currents. Fusion was initiated by adding 5-20 μl of lipid vesicles (only 5-20 ng of protein) to the cis bilayer chamber with mixing. Non-fused proteoliposomes were removed from the compartments and solutions exchanged as described above.
Control bilayers containing Bcl-2 or Bax channels were prepared by fusion of unilamellar proteoliposomes with incorporated Bcl-2ΔTM or BaxΔTM with an established planar bilayer as described in Example 4. Test bilayers containing Bcl-2 channels were prepared in the same manner to which an 11 mer Bax peptide (SEQ ID NO:1) with known death agonist activity was added at 20, 50 or 100 μM. A voltage of 80 mV was applied to each control and test channel and its conductance measured for a period of 12 to 16 seconds and the frequency that each channel was measured at a particular conductance level (pA) was calculated. The data, representing about 500,000 measurements, are shown as histograms in FIGS. 8A-8E. […]

[4] = planar lipid bilayers, pH 7.0 (Antonsson et al.), cited from earlier work
[5] = physiological pH (Antonsson et al.); cited from earlier work
[6] = 450/150 mM KCl gradient, pH 7.0

Bax: recombinant murine Bax polypeptide lacking the C-terminal signal-anchor membrane targeting sequence (amino acids 1-173 of SEQ ID NO:6)
highest pH with retained activity (ion release from liposomes) [1]: ≤ 5.5 pH
pH of maximum release of Cl- ([1]; 500 ng/ml, FIG. 1A): 4.0-4.5 pH
Cl- release from KCl loaded lipid vesicles ([1]; pH 3.5): 41%
release of Cl-, decrease from maximum ([1]; pH 3.5, 500 ng/ml, FIG. 1A): 50%
Cl- release from KCl loaded lipid vesicles ([1]; pH 4.0, same quantities of each protein): 75%
Cl- release from KCl loaded lipid vesicles ([1]; pH 5.0): 41%
release of Cl-, decrease from maximum ([1]; pH 5.0, 500 ng/ml, FIG. 1A): 50%
release of Cl-, decrease from maximum ([1]; pH 5.5, 500 ng/ml, FIG. 1A): less than 10%
release of Cl- on pH shift ([1]; pH 6.0 shifted to pH 4.0, FIG. 1C): a rapid release of Cl^-
ratio of channel indicator release at pH 3.5 and pH 4.0 (R3.5/4.0) ([1]; stated as behaviour like Bax / Bcl-2 (criterion)): less than 1
initial current (direction) ([2]; 450/150 mM KCl cis to trans, pH 4.0, spontaneous (OS)): initial, inward current
conductance of initial channel [2]: 22 (s.d. 5, n=5) pS
conductance of initial channel ([2]; listed as BaxΔTM): 22 pS
time to appearance of initial current ([2]; pH 4.0, listed as BAXΔTM): ≤ 10 min
time to appearance of initial current ([2]; pH 4.0, listed as BaxΔTM): Four
duration of channel transition ([2]; +40 mV, pH 4.0): ~ 5 mins
current level, C and OS ([2]; +40 mV, transition, pH 4.0): 0 pA
current level, O1 ([2]; +40 mV, transition, pH 4.0): 2.36 pA
current level, O1+2 ([2]; +40 mV, transition, pH 4.0): 8.81 pA
current level, O2 ([2]; +40 mV, transition, pH 4.0): 6.4 pA
current level, C ([2]; -40 mV, transition, pH 4.0): 0 pA
current level, O1 ([2]; -40 mV, transition, pH 4.0): -10.9 pA
current level, O1+2 ([2]; -40 mV, transition, pH 4.0): -30.5 pA
current level, OS ([2]; -40 mV, transition, pH 4.0): -2.14 pA
voltage dependence ([2]; hyperpolarization to -40 mV, pH 4.0): increased the channel activity
slope conductance of final stable channel ([2]; pH 4.0): 0.731±0.01 nS
PK/PCl (Cl- selectivity, average over current levels) ([2]; pH 4.0, from reversal potential): 0.10
effect of shifting pH on conductance and selectivity ([2]; pH 4.0 to 7.0): altered the conductance and selectivity of Bax
current-voltage relation ([2]; pH 7.0): linear with voltage
conductance after pH shift to 7.0 ([2]; pH 7.0, 450/150 mM KCl gradient): 0.329±0.002 nS
conductance after pH shift to 7.0 ([2]; pH 7.0, both chambers 150 mM KCl): 0.302±0.008 nS
PK/PCl after pH shift to 7.0 ([2]; pH 7.0 after insertion at pH 4.0): 0.5
time from initial appearance to channel progression ([2]; planar bilayers): 2 to 4 min
ion selectivity of channel ([2]; planar bilayers): consistent anion selectivity
ion selectivity of channel ([2]; planar bilayers, listed as BAX): Cl^- selective
less frequent conductance peak ([3]; 80 mV, no peptide): about 65 pA
PK/PCl from reversal potential [3, 6]: 0.32
initial current (direction) [3, 6]: inward (PK <PCl) current
duration of periodic channel closing ([3]; -70 mV, symmetrical 150 mM KCl): 20 to 30 ms
conductance pattern ([3]; neutral pH): simpler single channel conductance pattern
ion selectivity of channel ([3]; neutral pH, proteoliposome fusion): Cl^- -selective
channel conductance at negative voltages ([3]; symmetrical 150 mM KCl, pH 7.0): 1.5 (sd 0.3, n=3) nS
rectification ([3]; symmetrical KCl, neutral pH): Mild outward rectification
ion selectivity [4]: cation selective
permeability ratio of Na+ to Cl- [4]: about 2.1
ion selectivity ([4]; listed as BaxΔTM): slightly cation selective
pore-forming activity in liposomes [5]: intrinsic pore-forming activity
